Reference: patent US9976141B2, “Compositions and methods for inhibiting gene expression of Hif2alpha” (Arrowhead Madison Inc., priority 2015, dated 2018)
Strand notation (5' to 3'): a small letter for the sugar, then the base; units joined by * are phosphorothioate-linked, units joined directly phosphodiester-linked; [ ] holds rarer units or linkages, { } end groups; capitals alone tell only the bases. d = 2'-deoxy (DNA); m = 2'-O-methyl; f = 2'-fluoro

System: human EPAS1 (Hif2α) cDNA in psiCHECK2 (Renilla luciferase/EPAS1 fusion mRNA) in Hep3B cells
Assay: Efficacy screen of Hif2α RNAi triggers in vitro, dual-luciferase reporter assay (1 nM and 0.1 nM)
Format: cell-based
Settings: Hep3B cells co-transfected with EPAS1-psiCHECK2, Renilla luciferase normalized to firefly luciferase
Outline: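 Knockdown read by dual-luciferase assay: Renilla signal from the Renilla/EPAS1 fusion transcript divided by firefly luciferase expressed from the same plasmid. Triggers (modified canonical siRNAs, 1 nM or 0.1 nM) were co-transfected with 25 ng reporter plasmid per well into human hepatocellular carcinoma Hep3B cells.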

2311 (sense fCmCfAmCfAmAfAmGfUmGfGmGfCmCfGmUfCmGfAdT; antisense dTfCmGfAmCfGmGfCmCfCmAfCmUfUmUfGmUfGmGdT*dT; siRNA) [compound 2311]
Relative Rluc-Hif2α (0.1 nM RNAi trigger): 0.888 ± 0.051
Relative Rluc-Hif2α (1 nM RNAi trigger): 0.841 ± 0.130

2312 (sense fCmAfCmAfAmAfGmUfGmGfGmCfCmGfUmCfGmGfAdT; antisense dTfCmCfGmAfCmGfGmCfCmCfAmCfUmUfUmGfUmGdT*dT; siRNA) [compound 2312]
Relative Rluc-Hif2α (0.1 nM RNAi trigger): 0.899 ± 0.124
Relative Rluc-Hif2α (1 nM RNAi trigger): 0.725 ± 0.173

2313 (sense fAmGfUmGfGmGfCmCfGmUfCmGfGmGfGmAfUmCfAdT; antisense dTfGmAfUmCfCmCfCmGfAmCfGmGfCmCfCmAfCmUdT*dT; siRNA) [compound 2313]
Relative Rluc-Hif2α (0.1 nM RNAi trigger): 0.853 ± 0.133
Relative Rluc-Hif2α (1 nM RNAi trigger): 0.886 ± 0.243

2314 (sense fAmAfAmGfGmGfUmUfUmUfGmGfGmGfCmUfCmGfAdT; antisense dTfCmGfAmGfCmCfCmCfAmAfAmAfCmCfCmUfUmUdT*dT; siRNA) [compound 2314]
Relative Rluc-Hif2α (0.1 nM RNAi trigger): 0.692 ± 0.141
Relative Rluc-Hif2α (1 nM RNAi trigger): 0.920 ± 0.150

2315 (sense fGmGfCmUfCmGfAmGfGmCfCmCfAmGfAmCfGmUfAdT; antisense dTfAmCfGmUfCmUfGmGfGmCfCmUfCmGfAmGfCmCdT*dT; siRNA) [compound 2315]
Relative Rluc-Hif2α (0.1 nM RNAi trigger): 0.781 ± 0.206
Relative Rluc-Hif2α (1 nM RNAi trigger): 0.876 ± 0.099

2316 (sense fGmCfUmCfGmAfGmGfCmCfCmAfGmAfCmGfUmGfAdT; antisense dTfCmAfCmGfUmCfUmGfGmGfCmCfUmCfGmAfGmCdT*dT; siRNA) [compound 2316]
Relative Rluc-Hif2α (0.1 nM RNAi trigger): 0.797 ± 0.211
Relative Rluc-Hif2α (1 nM RNAi trigger): 0.579 ± 0.055

2317 (sense fCmUfCmGfAmGfGmCfCmCfAmGfAmCfGmUfGmCfAdT; antisense dTfGmCfAmCfGmUfCmUfGmGfGmCfCmUfCmGfAmGdT*dT; siRNA) [compound 2317]
Relative Rluc-Hif2α (0.1 nM RNAi trigger): 0.842 ± 0.239
Relative Rluc-Hif2α (1 nM RNAi trigger): 0.843 ± 0.157

2318 (sense fGmGfUmAfGmCfCmCfUmCfUmCfCmAfAmCfAmAfAdT; antisense dTfUmUfGmUfUmGfGmAfGmAfGmGfGmCfUmAfCmCdT*dT; siRNA) [compound 2318]
Relative Rluc-Hif2α (0.1 nM RNAi trigger): 0.885 ± 0.370
Relative Rluc-Hif2α (1 nM RNAi trigger): 0.780 ± 0.103

2319 (sense fCmUfUmUfGmAfUmGfCmCfGmGfAmCfAmAfGmCfAdT; antisense dTfGmCfUmUfGmUfCmCfGmGfCmAfUmCfAmAfAmGdT*dT; siRNA) [compound 2319]
Relative Rluc-Hif2α (0.1 nM RNAi trigger): 0.454 ± 0.101
Relative Rluc-Hif2α (1 nM RNAi trigger): 0.234 ± 0.055

2320 (sense fUmUfUmGfAmUfGmCfCmGfGmAfCmAfAmGfCmCfAdT; antisense dTfGmGfCmUfUmGfUmCfCmGfGmCfAmUfCmAfAmAdT*dT; siRNA) [compound 2320]
Relative Rluc-Hif2α (0.1 nM RNAi trigger): 0.770 ± 0.312
Relative Rluc-Hif2α (1 nM RNAi trigger): 0.486 ± 0.059

2321 (sense fUmUfGmAfUmGfCmCfGmGfAmCfAmAfGmCfCmAfAdT; antisense dTfUmGfGmCfUmUfGmUfCmCfGmGfCmAfUmCfAmAdT*dT; siRNA) [compound 2321]
Relative Rluc-Hif2α (0.1 nM RNAi trigger): 0.561 ± 0.043
Relative Rluc-Hif2α (1 nM RNAi trigger): 0.665 ± 0.033

2322 (sense fGmGfAmCfAmAfGmCfCmAfCmUfGmAfGmCfGmCfAdT; antisense dTfGmCfGmCfUmCfAmGfUmGfGmCfUmUfGmUfCmCdT*dT; siRNA) [compound 2322]
Relative Rluc-Hif2α (0.1 nM RNAi trigger): 0.468 ± 0.012
Relative Rluc-Hif2α (1 nM RNAi trigger): 0.306 ± 0.059

2323 (sense fAmCfAmAfGmCfCmAfCmUfGmAfGmCfGmCfAmAfAdT; antisense dTfUmUfGmCfGmCfUmCfAmGfUmGfGmCfUmUfGmUdT*dT; siRNA) [compound 2323]
Relative Rluc-Hif2α (0.1 nM RNAi trigger): 0.631 ± 0.085
Relative Rluc-Hif2α (1 nM RNAi trigger): 0.664 ± 0.166

2324 (sense fGmGfAmCfUmAfCmAfGmCfCmUfGmUfCmGfUmCfAdT; antisense dTfGmAfCmGfAmCfAmGfGmCfUmGfUmAfGmUfCmCdT*dT; siRNA) [compound 2324]
Relative Rluc-Hif2α (0.1 nM RNAi trigger): 1.081 ± 0.293
Relative Rluc-Hif2α (1 nM RNAi trigger): 1.046 ± 0.208

2325 (sense fGmAfCmUfAmCfAmGfCmCfUmGfUmCfGmUfCmAfAdT; antisense dTfUmGfAmCfGmAfCmAfGmGfCmUfGmUfAmGfUmCdT*dT; siRNA) [compound 2325]
Relative Rluc-Hif2α (0.1 nM RNAi trigger): 1.304 ± 0.134
Relative Rluc-Hif2α (1 nM RNAi trigger): 1.379 ± 0.275

2326 (sense fCmUfAmCfAmGfCmCfUmGfUmCfGmUfCmAfGmCfAdT; antisense dTfGmCfUmGfAmCfGmAfCmAfGmGfCmUfGmUfAmGdT*dT; siRNA) [compound 2326]
Relative Rluc-Hif2α (0.1 nM RNAi trigger): 0.660 ± 0.114
Relative Rluc-Hif2α (1 nM RNAi trigger): 0.546 ± 0.083

2327 (sense fCmCfUmGfUmCfGmUfCmAfGmCfCmCfAmCfAmAfAdT; antisense dTfUmUfGmUfGmGfGmCfUmGfAmCfGmAfCmAfGmGdT*dT; siRNA) [compound 2327]
Relative Rluc-Hif2α (0.1 nM RNAi trigger): 1.339 ± 0.179
Relative Rluc-Hif2α (1 nM RNAi trigger): 1.073 ± 0.089

2328 (sense fGmCfAmUfGmGfCmAfAmGfCmCfGmGfCmUfGmCfAdT; antisense dTfGmCfAmGfCmCfGmGfCmUfUmGfCmCfAmUfGmCdT*dT; siRNA) [compound 2328]
Relative Rluc-Hif2α (0.1 nM RNAi trigger): 1.291 ± 0.109
Relative Rluc-Hif2α (1 nM RNAi trigger): 1.192 ± 0.144

2329 (sense fCmUfGmAfCmCfAmGfAmUfAmUfGmAfCmUfGmUfAdT; antisense dTfAmCfAmGfUmCfAmUfAmUfCmUfGmGfUmCfAmGdT*dT; siRNA) [compound 2329]
Relative Rluc-Hif2α (0.1 nM RNAi trigger): 0.807 ± 0.117
Relative Rluc-Hif2α (1 nM RNAi trigger): 0.456 ± 0.064

2330 (sense fGmAfUmAfUmGfAmCfUmGfUmGfAmGfGmUfGmAfAdT; antisense dTfUmCfAmCfCmUfCmAfCmAfGmUfCmAfUmAfUmCdT*dT; siRNA) [compound 2330]
Relative Rluc-Hif2α (0.1 nM RNAi trigger): 1.097 ± 0.416
Relative Rluc-Hif2α (1 nM RNAi trigger): 0.464 ± 0.035

2331 (sense fGmGfUmGfAmAfCmGfUmGfCmCfCmGfUmGfCmUfAdT; antisense dTfAmGfCmAfCmGfGmGfCmAfCmGfUmUfCmAfCmCdT*dT; siRNA) [compound 2331]
Relative Rluc-Hif2α (0.1 nM RNAi trigger): 1.002 ± 0.321
Relative Rluc-Hif2α (1 nM RNAi trigger): 0.783 ± 0.080

2332 (sense fUmAfCmAfAmGfAmUfGmGfAmCfUmUfAmCfCmUfAdT; antisense dTfAmGfGmUfAmAfGmUfCmCfAmUfCmUfUmGfUmAdT*dT; siRNA) [compound 2332]
Relative Rluc-Hif2α (0.1 nM RNAi trigger): 1.174 ± 0.027
Relative Rluc-Hif2α (1 nM RNAi trigger): 0.871 ± 0.235

2333 (sense fGmGfAmCfUmUfAmCfCmUfGmGfCmAfGmAfCmUfAdT; antisense dTfAmGfUmCfUmGfCmCfAmGfGmUfAmAfGmUfCmCdT*dT; siRNA) [compound 2333]
Relative Rluc-Hif2α (0.1 nM RNAi trigger): 0.684 ± 0.147
Relative Rluc-Hif2α (1 nM RNAi trigger): 0.291 ± 0.019

2334 (sense fUmUfUmUfUmCfUmGfAmGfAmUfGmCfUmCfAmCfAdT; antisense dTfGmUfGmAfGmCfAmUfCmUfCmAfGmAfAmAfAmAdT*dT; siRNA) [compound 2334]
Relative Rluc-Hif2α (0.1 nM RNAi trigger): 0.672 ± 0.082
Relative Rluc-Hif2α (1 nM RNAi trigger): 0.389 ± 0.044

2335 (sense fAmGfUmAfCmAfCmAfAmUfUmGfUmUfUmUfAmCfAdT; antisense dTfGmUfAmAfAmAfCmAfAmUfUmGfUmGfUmAfCmUdT*dT; siRNA) [compound 2335]
Relative Rluc-Hif2α (0.1 nM RNAi trigger): 0.311 ± 0.032
Relative Rluc-Hif2α (1 nM RNAi trigger): 0.104 ± 0.013

2336 (sense fAmCfAmAfGmUfUmUfGmGfUmGfCmAfUmGfUmCfAdT; antisense dTfGmAfCmAfUmGfCmAfCmCfAmAfAmCfUmUfGmUdT*dT; siRNA) [compound 2336]
Relative Rluc-Hif2α (0.1 nM RNAi trigger): 0.783 ± 0.037
Relative Rluc-Hif2α (1 nM RNAi trigger): 0.299 ± 0.034

2337 (sense fAmCfUmAfAmAfAmAfGmAfUmUfCmCfUmCfGmUfAdT; antisense dTfAmCfGmAfGmGfAmAfUmCfUmUfUmUfUmAfGmUdT*dT; siRNA) [compound 2337]
Relative Rluc-Hif2α (0.1 nM RNAi trigger): 0.334 ± 0.066
Relative Rluc-Hif2α (1 nM RNAi trigger): 0.131 ± 0.033

2338 (sense fAmGfGmGfUmCfAmAfCmUfCmCfAmAfCmGfUmAfAdT; antisense dTfUmAfCmGfUmUfGmGfAmGfUmUfGmAfCmCfCmUdT*dT; siRNA) [compound 2338]
Relative Rluc-Hif2α (0.1 nM RNAi trigger): 0.743 ± 0.070
Relative Rluc-Hif2α (1 nM RNAi trigger): 0.334 ± 0.091

2339 (sense fGmGfGmUfCmAfAmCfUmCfCmAfAmCfGmUfAmUfAdT; antisense dTfAmUfAmCfGmUfUmGfGmAfGmUfUmGfAmCfCmCdT*dT; siRNA) [compound 2339]
Relative Rluc-Hif2α (0.1 nM RNAi trigger): 0.523 ± 0.134
Relative Rluc-Hif2α (1 nM RNAi trigger): 0.189 ± 0.028

2340 (sense fGmUfCmAfAmCfUmCfCmAfAmCfGmUfAmUfGmUfAdT; antisense dTfAmCfAmUfAmCfGmUfUmGfGmAfGmUfUmGfAmCdT*dT; siRNA) [compound 2340]
Relative Rluc-Hif2α (0.1 nM RNAi trigger): 0.920 ± 0.114
Relative Rluc-Hif2α (1 nM RNAi trigger): 0.444 ± 0.039

2341 (sense fUmCfAmAfCmUfCmCfAmAfCmGfUmAfUmGfUmGfAdT; antisense dTfCmAfCmAfUmAfCmGfUmUfGmGfAmGfUmUfGmAdT*dT; siRNA) [compound 2341]
Relative Rluc-Hif2α (0.1 nM RNAi trigger): 0.378 ± 0.116
Relative Rluc-Hif2α (1 nM RNAi trigger): 0.202 ± 0.018

2342 (sense fCmAfAmCfUmCfCmAfAmCfGmUfAmUfGmUfGmGfAdT; antisense dTfCmCfAmCfAmUfAmCfGmUfUmGfGmAfGmUfUmGdT*dT; siRNA) [compound 2342]
Relative Rluc-Hif2α (0.1 nM RNAi trigger): 1.058 ± 0.064
Relative Rluc-Hif2α (1 nM RNAi trigger): 0.549 ± 0.041

2343 (sense fCmUfCmCfAmAfCmGfUmAfUmGfUmGfGmUfUmAfAdT; antisense dTfUmAfAmCfCmAfCmAfUmAfCmGfUmUfGmGfAmGdT*dT; siRNA) [compound 2343]
Relative Rluc-Hif2α (0.1 nM RNAi trigger): 0.620 ± 0.208
Relative Rluc-Hif2α (1 nM RNAi trigger): 0.254 ± 0.009

2344 (sense fUmCfCmAfAmCfGmUfAmUfGmUfGmGfUmUfAmUfAdT; antisense dTfAmUfAmAfCmCfAmCfAmUfAmCfGmUfUmGfGmAdT*dT; siRNA) [compound 2344]
Relative Rluc-Hif2α (0.1 nM RNAi trigger): 0.570 ± 0.071
Relative Rluc-Hif2α (1 nM RNAi trigger): 0.276 ± 0.033

2345 (sense fCmCfAmAfCmGfUmAfUmGfUmGfGmUfUmAfUmCfAdT; antisense dTfGmAfUmAfAmCfCmAfCmAfUmAfCmGfUmUfGmGdT*dT; siRNA) [compound 2345]
Relative Rluc-Hif2α (0.1 nM RNAi trigger): 0.296 ± 0.096
Relative Rluc-Hif2α (1 nM RNAi trigger): 0.129 ± 0.026
